# Results: article PMC12459314, “Subcutaneous administration of a novel TRPM8 antagonist reverses cold hypersensitivity while attenuating the drop in core body temperature” (British journal of pharmacology, 2024)
# Assays:
# oxaliplatin-treated mice = assay: Oxaliplatin-induced cold hyperalgesia, cold-plantar test; assay type: in vivo, mouse; conditions: for reversal of cold hypersensitivity (withdrawal latency) / increase in latency (AUC) compared to baseline: oxaliplatin group; for influence on oxaliplatin-induced cold hypersensitivity: 30 mg·kg−1 alone
# Experimental: Male and female C57 BL/6J mice from Taconic Labs were randomized by sex and cage to oxaliplatin or vehicle groups. Mice were weighed and injected intraperitoneally (i.p.) with either oxaliplatin (3 mg·kg^−1), or vehicle (5% dextrose) once per day every day for five consecutive days, followed by five days off, and then by a second round of once per day for five more days. Therefore, mice received a total of 10 injections for a total of 30 mg·kg^−1. The average weight of the females was 18 g while of the males was 20 g. Consequently, the females received an average of 540 and the males 600 μg in total. Behavioural testing was started after the second round of oxaliplatin/vehicle administration. The cold-plantar test was used to assess changes in cold sensitivity. A 3 ml syringe barrel filled with powdered dry ice was used as the stimulus. The dry ice is placed on the glass (borosilicate glass; thickness, 1/8 in. (3.17 mm); temperature, 75°F (24°C), measured with a calibrated IR temperature probe) beneath the hindpaw and the latency to withdraw was determined ([Yilmaz et al., 2017]). The baseline withdrawal latency was determined from the mean of three stimulus applications (at an inter-stimulus interval of ~5 min), while that at each time interval after the administration of a test agent was again the mean of three stimulus applications bracketing the time point in question (i.e., 5 min before, at the time point, and 5 min after). Mice in the two groups defined by oxaliplatin treatment were subsequently randomized to the order of treatment (with the TRPM8 antagonist VBJ103, or vehicle control). VBJ103 and vehicle solutions were administered subcutaneously (s.c.) at doses of 3, 10 and 30 mg·kg^−1. Mice were tested every other day over 7 days so that each mouse received all four injections (vehicle and three doses of VBJ103). In a second cohort of male (n = 8) and female (n = 8) mice, all mice were treated with oxaliplatin as described above, and then randomized to the order of treatment with vehicle, VBJ103 (30 mg·kg^−1) alone, the TRPA1 antagonist, HC-030031 (200 mg·kg^−1) alone, or the combination of VBJ103 (30 mg·kg^−1) and HC-030031 (200 mg·kg^−1). A third cohort of male (n = 7) and female (n = 8) mice was also treated with oxaliplatin as described above. […] All test agents in both follow-up cohorts were again administered in a volume of 5 ml·kg^−1. Mice in both follow-up cohorts were again tested every other day over a period of 6 days. Finally, a fourth cohort of male (n = 4) and female (n = 4) mice was used to confirm that 200 mg·kg^−1 HC-030031 was sufficient to block TRPA1. For this experiment, mice were randomized to the order of treatment with vehicle or HC-030031 ([…]).
# [1] = Partition coefficient (logD), shake flask method; assay type: physicochemical; conditions: n-octanol / pH 7.4 phosphate buffer, pH 7.4
# Experimental: The partition coefficient (logD) at pH 7.4 of VBJ103 was determined using the shake flask method by Absorption Systems (Exton, PA, USA). The buffer was prepared by combining 50 ml of 0.2-M solution of KH2PO4 with 150 ml of dH2O and then adjusting to pH 7.4 with 10-N NaOH. In a single incubation, 15 μl of a 10-mM DMSO solution of each test article was added to test tubes which contained 0.75 ml of n-octanol and 0.75 ml of pH 7.4 phosphate buffer. Testosterone was also introduced to each tube as an internal control, also at a dosing concentration of 100 μM. These samples were gently mixed on a benchtop rotator for 1 h at room temperature. The tubes were then removed from the rotator, and the aqueous and organic phases were allowed to separate for 1 h. An aliquot of the organic layer was taken and diluted 200-fold into a mixture of 1:1 buffer: acetonitrile (ACN). An aliquot of the aqueous layer was taken and diluted 2-fold, 10-fold and 200-fold into a mixture of 1:1 buffer: ACN. All samples were assayed by LC–MS/MS on a Thermo BDS Hypersil C18 column (30 × 2.1 mm, 3 μm) using electrospray ionization, as previously reported ([Journigan et al., 2020]).
# [2] = target: T1, δ opioid receptor (OPRD1) (Homo sapiens, UniProt P41143); assay: Eurofins DiscoverX opioid receptor assays (SAFETYscan; HitHunter cAMP), OPRD1; assay type: cell-based
# T1 construct: purchased Eurofins DiscoverX (SAFETYscan; gpcrSCAN; HitHunter cAMP XS+)
# Experimental: Assessment of the safety profile of VBJ103 across 78 assays using recombinant human targets was performed with the SAFETYscan E/IC50 ELECT service by Eurofins DiscoverX (San Diego, CA, USA). […] The assays were performed utilizing PathHunter enzyme fragment complementation (EFC) technology, FLIPR®-based cellular screening assays, KINOMEscan kinase binding assays and a variety of enzymatic assays. Further potential functional activity at opioid receptors was performed in the gpcrSCAN service by Eurofins DiscoverX. Hit Hunter® cAMP assays were carried out using Enzyme Fragment Complementation (EFC) with β-galactosidase (β-Gal) as the functional reporter.
# Assessment of potential positive allosteric modulator (PAM) activity at μ, δ and κ opioid receptors was performed with the DiscoverX HitHunter cAMP XS+ assay by Eurofins DiscoverX (San Diego, CA, USA).
# T1 sequence (P41143 whole entry): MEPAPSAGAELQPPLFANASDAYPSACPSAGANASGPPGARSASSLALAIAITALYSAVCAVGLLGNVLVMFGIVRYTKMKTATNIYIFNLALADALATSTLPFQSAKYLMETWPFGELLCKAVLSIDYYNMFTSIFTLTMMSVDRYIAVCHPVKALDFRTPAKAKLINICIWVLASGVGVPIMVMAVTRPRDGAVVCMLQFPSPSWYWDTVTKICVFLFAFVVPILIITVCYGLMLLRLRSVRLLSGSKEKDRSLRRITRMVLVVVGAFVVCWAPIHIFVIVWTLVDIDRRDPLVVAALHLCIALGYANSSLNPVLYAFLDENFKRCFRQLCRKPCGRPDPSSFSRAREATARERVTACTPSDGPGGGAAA
compound,measurement,setting,value
"O=C(NC1CCC2(CCCC2)CC1)c1ccc(-c2ccccc2)cc1 [VBJ103, N-(Spiro[4.5]decan-8-yl)-[1,1′-biphenyl]-4-carboxamide]",reversal of cold hypersensitivity (withdrawal latency),"oxaliplatin-treated mice; 3 mg·kg−1 s.c., at 2 h",significant reversals in hypersensitivity
same,reversal of cold hypersensitivity (withdrawal latency),"oxaliplatin-treated mice; 10 mg·kg−1 s.c., at 1 and 2 h",significant reversals in hypersensitivity
same,increase in latency (AUC) compared to baseline,oxaliplatin-treated mice; 10 mg·kg−1 s.c.,significant
same,influence on oxaliplatin-induced cold hypersensitivity,"oxaliplatin-treated mice; second cohort, vehicle 0.5% Methocel",significantly attenuated oxaliplatin-induced cold hypersensitivity at all time points tested
same,influence on oxaliplatin-induced cold hypersensitivity,"oxaliplatin-treated mice; third cohort, vehicle 1:1 DMSO:water",significantly reversed
same,reversal of cold hypersensitivity (withdrawal latency),"oxaliplatin-treated mice; 30 mg·kg−1 s.c., at 0.5, 1 and 2 h",significant reversals in hypersensitivity
same,increase in latency (AUC) compared to baseline,oxaliplatin-treated mice; 30 mg·kg−1 s.c.,significant
same,influence on withdrawal latency to noxious cold stimuli,"oxaliplatin-treated mice; VBJ103 30 mg·kg−1 in combination with GBR12909 20 mg·kg−1, third cohort",no detectable influence of GBR12909 on the withdrawal latency
same,influence on withdrawal latency to noxious cold stimuli,"oxaliplatin-treated mice; VBJ103 30 mg·kg−1 in combination with HC-030031 200 mg·kg−1, second cohort",not detectably different from the influence of VBJ103 alone
same,baseline responses to noxious cold compared to vehicle,"oxaliplatin-treated mice; mice not treated with oxaliplatin, 3 to 30 mg·kg−1 s.c.",not altered
same,logD at 1 h,[1],3.21
same,Emax,"[2]; Positive Allosteric Modulator format, read-out: Max Response, cAMP",0%
same,EC50,"[2]; read-out: RC50 (EC50), cAMP",> 100 µM
same,activity at δ opioid receptor,[2]; safety panel,no activity
